The NIST ThermoML archive (doi:10.1021/je900596d)

Conditions: for mass density: Vibrating tube method

FC(F)=C(F)C(F)(F)F [hexafluoropropene]
Conditions | mass density [kg/m3] | vapor or sublimation pressure [kPa]
283.17 K, 6464.6 kPa, Liquid | 1420.83 | –
283.17 K, 6531.5 kPa, Liquid | 1421.22 | –
283.17 K, 6599.8 kPa, Liquid | 1421.62 | –
283.17 K, 6668.2 kPa, Liquid | 1422.01 | –
283.17 K, 6734.8 kPa, Liquid | 1422.36 | –
283.17 K, 6802 kPa, Liquid | 1422.82 | –
283.17 K, 6878.8 kPa, Liquid | 1423.17 | –
283.17 K, 6945.1 kPa, Liquid | 1423.6 | –
283.17 K, 7018.8 kPa, Liquid | 1423.92 | –
283.17 K, 7085.3 kPa, Liquid | 1424.29 | –
283.17 K, 7154.4 kPa, Liquid | 1424.62 | –
283.17 K, 7220.3 kPa, Liquid | 1425.09 | –
283.17 K, 7293 kPa, Liquid | 1425.48 | –
283.17 K, 7359.6 kPa, Liquid | 1425.9 | –
283.17 K, 7428.2 kPa, Liquid | 1426.22 | –
283.17 K, 7493.3 kPa, Liquid | 1426.61 | –
283.17 K, 7562.9 kPa, Liquid | 1426.95 | –
283.17 K, 7634.7 kPa, Liquid | 1427.34 | –
283.17 K, 7780.3 kPa, Liquid | 1428.05 | –
283.17 K, 7854.7 kPa, Liquid | 1428.44 | –
283.17 K, 7922.9 kPa, Liquid | 1428.82 | –
283.17 K, 7991.9 kPa, Liquid | 1429.21 | –
283.17 K, 8053 kPa, Liquid | 1429.55 | –
283.17 K, 8093.3 kPa, Liquid | 1429.79 | –
283.17 K, 8134.7 kPa, Liquid | 1429.94 | –
283.17 K, 8175.7 kPa, Liquid | 1430.23 | –
283.17 K, 8222.2 kPa, Liquid | 1430.51 | –
283.17 K, 8262.6 kPa, Liquid | 1430.66 | –
283.17 K, 8310.9 kPa, Liquid | 1430.87 | –
283.17 K, 8353.2 kPa, Liquid | 1431.08 | –
283.17 K, 8393.4 kPa, Liquid | 1431.32 | –
283.17 K, 8434 kPa, Liquid | 1431.55 | –
283.17 K, 8474.2 kPa, Liquid | 1431.73 | –
283.17 K, 8517.4 kPa, Liquid | 1432.02 | –
283.17 K, 8563.4 kPa, Liquid | 1432.23 | –
283.17 K, 8609.7 kPa, Liquid | 1432.53 | –
283.17 K, 8651.7 kPa, Liquid | 1432.69 | –
283.17 K, 8693.8 kPa, Liquid | 1432.88 | –
283.17 K, 8735.7 kPa, Liquid | 1433.12 | –
283.17 K, 8779.9 kPa, Liquid | 1433.38 | –
283.17 K, 8821.1 kPa, Liquid | 1433.52 | –
283.17 K, 8871.9 kPa, Liquid | 1433.93 | –
283.17 K, 8912.3 kPa, Liquid | 1434 | –
283.17 K, 8953.6 kPa, Liquid | 1434.33 | –
283.17 K, 8996.5 kPa, Liquid | 1434.45 | –
283.17 K, 9044.1 kPa, Liquid | 1434.75 | –
283.17 K, 9090.4 kPa, Liquid | 1435.02 | –
283.17 K, 9132.2 kPa, Liquid | 1435.25 | –
283.17 K, 9176.2 kPa, Liquid | 1435.35 | –
283.17 K, 9217 kPa, Liquid | 1435.66 | –
283.17 K, 9261 kPa, Liquid | 1435.85 | –
283.17 K, 9303.9 kPa, Liquid | 1436.08 | –
283.17 K, 9347.1 kPa, Liquid | 1436.32 | –
283.17 K, 9392.3 kPa, Liquid | 1436.51 | –
283.17 K, 9439 kPa, Liquid | 1436.78 | –
283.17 K, 9480.9 kPa, Liquid | 1436.91 | –
283.17 K, 9522.3 kPa, Liquid | 1437.19 | –
283.17 K, 9569.5 kPa, Liquid | 1437.37 | –
283.17 K, 9612.2 kPa, Liquid | 1437.57 | –
283.17 K, 9656.4 kPa, Liquid | 1437.81 | –
283.17 K, 9696.9 kPa, Liquid | 1438.08 | –
283.17 K, 9737.5 kPa, Liquid | 1438.29 | –
283.17 K, 9778 kPa, Liquid | 1438.42 | –
283.17 K, 9820 kPa, Liquid | 1438.63 | –
283.17 K, 9860.9 kPa, Liquid | 1438.96 | –
283.17 K, 9908.7 kPa, Liquid | 1439.08 | –
283.17 K, 9991.1 kPa, Liquid | 1439.48 | –
283.23 K, Liquid, Closed cell (Static) method | – | 459
283.24 K, 3.6 kPa, Fluid (supercritical or subcritical phases) | 0.14 | –
283.24 K, 4 kPa, Fluid (supercritical or subcritical phases) | 0.18 | –
283.24 K, 4.5 kPa, Fluid (supercritical or subcritical phases) | 0.18 | –
283.24 K, 5.1 kPa, Fluid (supercritical or subcritical phases) | 0.27 | –
283.24 K, 6 kPa, Fluid (supercritical or subcritical phases) | 0.3 | –
283.24 K, 7.2 kPa, Fluid (supercritical or subcritical phases) | 0.31 | –
283.24 K, 8.2 kPa, Fluid (supercritical or subcritical phases) | 0.4 | –
283.24 K, 9.1 kPa, Fluid (supercritical or subcritical phases) | 0.47 | –
283.24 K, 9.8 kPa, Fluid (supercritical or subcritical phases) | 0.52 | –
283.24 K, 10.8 kPa, Fluid (supercritical or subcritical phases) | 0.56 | –
283.24 K, 11.8 kPa, Fluid (supercritical or subcritical phases) | 0.65 | –
283.24 K, 12.6 kPa, Fluid (supercritical or subcritical phases) | 0.7 | –
283.24 K, 13.4 kPa, Fluid (supercritical or subcritical phases) | 0.85 | –
283.24 K, 14.4 kPa, Fluid (supercritical or subcritical phases) | 0.85 | –
283.24 K, 15.2 kPa, Fluid (supercritical or subcritical phases) | 0.87 | –
283.24 K, 16 kPa, Fluid (supercritical or subcritical phases) | 0.88 | –
283.24 K, 17 kPa, Fluid (supercritical or subcritical phases) | 0.98 | –
283.24 K, 18.1 kPa, Fluid (supercritical or subcritical phases) | 1.01 | –
283.24 K, 19.2 kPa, Fluid (supercritical or subcritical phases) | 1.12 | –
283.24 K, 20.3 kPa, Fluid (supercritical or subcritical phases) | 1.19 | –
283.24 K, 21.5 kPa, Fluid (supercritical or subcritical phases) | 1.25 | –
283.24 K, 22.7 kPa, Fluid (supercritical or subcritical phases) | 1.31 | –
283.24 K, 23.9 kPa, Fluid (supercritical or subcritical phases) | 1.47 | –
283.24 K, 25.1 kPa, Fluid (supercritical or subcritical phases) | 1.47 | –
283.24 K, 26.3 kPa, Fluid (supercritical or subcritical phases) | 1.57 | –
283.24 K, 27.6 kPa, Fluid (supercritical or subcritical phases) | 1.66 | –
283.24 K, 28.8 kPa, Fluid (supercritical or subcritical phases) | 1.74 | –
283.24 K, 30 kPa, Fluid (supercritical or subcritical phases) | 1.8 | –
283.24 K, 31.2 kPa, Fluid (supercritical or subcritical phases) | 1.87 | –
283.24 K, 32.6 kPa, Fluid (supercritical or subcritical phases) | 1.92 | –
283.24 K, 33.8 kPa, Fluid (supercritical or subcritical phases) | 2.04 | –
283.24 K, 35.1 kPa, Fluid (supercritical or subcritical phases) | 2.16 | –
283.24 K, 36.3 kPa, Fluid (supercritical or subcritical phases) | 2.23 | –
283.24 K, 37.6 kPa, Fluid (supercritical or subcritical phases) | 2.25 | –
283.24 K, 38.8 kPa, Fluid (supercritical or subcritical phases) | 2.33 | –
283.24 K, 40.1 kPa, Fluid (supercritical or subcritical phases) | 2.39 | –
283.24 K, 41.4 kPa, Fluid (supercritical or subcritical phases) | 2.51 | –
283.24 K, 42.6 kPa, Fluid (supercritical or subcritical phases) | 2.65 | –
283.24 K, 43.9 kPa, Fluid (supercritical or subcritical phases) | 2.74 | –
283.24 K, 45.1 kPa, Fluid (supercritical or subcritical phases) | 2.76 | –
283.24 K, 46.4 kPa, Fluid (supercritical or subcritical phases) | 2.84 | –
283.24 K, 47.7 kPa, Fluid (supercritical or subcritical phases) | 2.93 | –
283.24 K, 49 kPa, Fluid (supercritical or subcritical phases) | 3.04 | –
283.24 K, 50.2 kPa, Fluid (supercritical or subcritical phases) | 3.09 | –
283.24 K, 52.8 kPa, Fluid (supercritical or subcritical phases) | 3.28 | –
283.24 K, 55.4 kPa, Fluid (supercritical or subcritical phases) | 3.44 | –
283.24 K, 58.1 kPa, Fluid (supercritical or subcritical phases) | 3.61 | –
283.24 K, 60.8 kPa, Fluid (supercritical or subcritical phases) | 3.81 | –
283.24 K, 63.5 kPa, Fluid (supercritical or subcritical phases) | 3.98 | –
283.24 K, 69.3 kPa, Fluid (supercritical or subcritical phases) | 4.38 | –
283.24 K, 72.2 kPa, Fluid (supercritical or subcritical phases) | 4.52 | –
283.24 K, 75.2 kPa, Fluid (supercritical or subcritical phases) | 4.75 | –
283.24 K, 78.1 kPa, Fluid (supercritical or subcritical phases) | 4.95 | –
283.24 K, 81.2 kPa, Fluid (supercritical or subcritical phases) | 5.2 | –
283.24 K, 84.2 kPa, Fluid (supercritical or subcritical phases) | 5.34 | –
283.24 K, 87.2 kPa, Fluid (supercritical or subcritical phases) | 5.58 | –
283.24 K, 90.3 kPa, Fluid (supercritical or subcritical phases) | 5.77 | –
283.24 K, 93.4 kPa, Fluid (supercritical or subcritical phases) | 6 | –
283.24 K, 96.5 kPa, Fluid (supercritical or subcritical phases) | 6.19 | –
283.24 K, 99.6 kPa, Fluid (supercritical or subcritical phases) | 6.44 | –
283.24 K, 102 kPa, Fluid (supercritical or subcritical phases) | 6.55 | –
283.24 K, 104.4 kPa, Fluid (supercritical or subcritical phases) | 6.69 | –
283.24 K, 106.7 kPa, Fluid (supercritical or subcritical phases) | 6.88 | –
283.24 K, 109.2 kPa, Fluid (supercritical or subcritical phases) | 7.05 | –
283.24 K, 111.6 kPa, Fluid (supercritical or subcritical phases) | 7.23 | –
